# Conditions: used alone
# Description: Here, a complete cure was determined by comparing the configuration and properties (hardness and color, in clinical practice) of the periodontium, mobility of the teeth, depth of pockets, hemorrhaging, pus discharge, effusion, bacterial flora within the pocket and the like, against those of a normal person (excepting any dramatic periodontial regeneration such as dramatic bone growth relative to the normal person through this medication alone).
compound,measurement,value
"C[C@@H]1[C@H](O)[C@@H](C)/C=C/C=C/C=C/C=C/C=C/C=C/C=C/[C@H](O[C@@H]2O[C@H](C)[C@@H](O)[C@H](N)[C@@H]2O)C[C@@H]2O[C@](O)(C[C@@H](O)C[C@@H](O)[C@H](O)CC[C@@H](O)C[C@@H](O)CC(=O)O[C@H]1C)C[C@H](O)[C@H]2C(=O)O [amphotericin, amphotericin B]",occurrences on use alone,annual-term occurrences

# Reference: patent publication US6875422B2, “Oral treatment/care agent” (priority 2000, dated 2005)
